Results published in ChEMBL document CHEMBL1154938 (Bioorg Med Chem Lett, 2010).

What was measured:
[1] = test system: Human immunodeficiency virus 1; test: Antiviral activity against CCR5-tropic recombinant HIV1 NLBal virus infected in JC53-BL cells assessed as inhibition of viral replication after 3 days by luciferase reporter gene assay; format: functional, organism-based; conditions: Human immunodeficiency virus 1, NLBal, JC53BL, 72 h
[2] = biological target: C-C chemokine receptor type 5 (Homo sapiens, UniProt P51681); test: Displacement of […] from human CCR5 receptor coexpressed with Galphai6 in CHO cells after 2 hrs by scintillation counting; format: cell-based
Sequence of C-C chemokine receptor type 5 (P51681 whole entry): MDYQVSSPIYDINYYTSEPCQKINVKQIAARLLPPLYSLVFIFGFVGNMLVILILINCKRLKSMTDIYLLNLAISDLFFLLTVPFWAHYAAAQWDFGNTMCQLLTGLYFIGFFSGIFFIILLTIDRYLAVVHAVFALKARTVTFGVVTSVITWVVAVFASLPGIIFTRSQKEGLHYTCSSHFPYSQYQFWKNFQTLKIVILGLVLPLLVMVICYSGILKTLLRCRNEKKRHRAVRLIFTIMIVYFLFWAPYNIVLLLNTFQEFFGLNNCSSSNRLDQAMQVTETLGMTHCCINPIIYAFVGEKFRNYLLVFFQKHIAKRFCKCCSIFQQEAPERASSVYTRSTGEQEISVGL

Row | Structure (SMILES) | IC50 [1] [µM] | IC50 [2] [µM]
1 | Cc1nnc(C)n1C1CCN(CC[C@H](NC(=O)C2CCOC2)c2cccc(F)c2)CC1 (some centres not stated) | ≥ 0.625 | 
2 | Cc1nnc(C)n1[C@H]1C[C@@H]2CN(CC[C@H](NC(=O)C3CC(F)(F)C3)c3cccc(F)c3)C[C@@H]2C1 | 0.2 | 0.006
3 | Cc1nnc(C)n1[C@H]1C[C@@H]2CN(CC[C@H](NC(=O)C3CCOCC3)c3cccc(F)c3)C[C@@H]2C1 | ≥ 0.625 | 0.043
4 | Cc1nnc(C)n1[C@H]1C[C@@H]2CN(CC[C@H](NC(=O)C3CCC(F)(F)CC3)c3cccc(F)c3)C[C@@H]2C1 | 0.081 | 
5 | Cc1nnc(C)n1[C@@H]1C[C@@H]2CN(CC[C@H](NC(=O)C3CCOC3)c3cccc(F)c3)C[C@@H]2C1 (some centres not stated) | 0.21 | 0.018
6 | Cc1nnc(C)n1[C@H]1C[C@@H]2CN(CC[C@H](NC(=O)C3CCOC3)c3cccc(F)c3)C[C@@H]2C1 (some centres not stated) | 0.04 | 0.035
7 | Cc1nnc(C)n1[C@@H]1C[C@@H]2CN(CC[C@H](NC(=O)C3CC(F)(F)C3)c3cccc(F)c3)C[C@@H]2C1 | 0.074 | 0.006
8 | Cc1nnc(C)n1[C@@H]1C[C@@H]2CN(CC[C@H](NC(=O)C3CCOCC3)c3cccc(F)c3)C[C@@H]2C1 | ≥ 0.625 | 0.03
9 | Cc1nnc(C)n1[C@@H]1C[C@@H]2CN(CC[C@H](NC(=O)C3CCC(F)(F)CC3)c3cccc(F)c3)C[C@@H]2C1 | 0.041 | 0.008
10 | Cc1nnc(C)n1[C@H]1C[C@H]2CC[C@@H](C1)N2CC[C@H](NC(=O)C1CCOCC1)c1cccc(F)c1 | 0.22 | 0.013
11 | Cc1nnc(C)n1[C@H]1C[C@H]2CC[C@@H](C1)N2CC[C@H](NC(=O)C1CCC(F)(F)CC1)c1cccc(F)c1 | 0.005 | 0.005
12 | Cc1nnc(C)n1C1CCN(CC[C@H](NC(=O)C2CCC(F)(F)CC2)c2cccc(F)c2)CC1 | ≥ 0.625 | 0.038
13 | Cc1nnc(C)n1[C@H]1C[C@H]2CC[C@@H](C1)N2CC[C@H](NC(=O)C1CCOC1)c1cccc(F)c1 (some centres not stated) | 0.062 | 0.007
14 | Cc1nnc(C)n1[C@H]1C[C@H]2CC[C@@H](C1)N2CC[C@H](NC(=O)C1CC(F)(F)C1)c1cccc(F)c1 | 0.024 | 0.005
15 | Cc1nnc(C(C)C)n1[C@H]1C[C@H]2CC[C@@H](C1)N2CC[C@H](NC(=O)C1CCC(F)(F)CC1)c1ccccc1 [MARAVIROC] | 0.0028 | 
